Test [1] concerns Listeria monocytogenes (six strains). Kind of test: Biofilm formation in microtiter plates, Listeria. It is filed as cell-based. The following applies: 24 hours at 35 °C. On the procedure: Six strains of Listeria monocytogenes were used in this study isolated from food research. The strains were recovered in 200 μl TSB broth in a microtiter plate and incubated at 37° C. for 24 hours. A total of 5 μl of the bacterial suspension was transferred to a 96 wells polystyrene microtiter plate (Thermo scientific Nucleon Delta surface) together with 200 μl medium (LB^wo/NaCl) with 1,3-cyclohexanedione (dissolved to 0,625 mg/ml, 2.5 mg/ml, 5 mg/ml and 10 mg/ml) to each well. Each strain was added in duplex and incubated at 35° C. for 24 hours. After incubation, OD595 was measured before the plates were gently washed one time with 200 μl tap water. This was repeated once. The plates were dried in room temperature before addition of 200 μl 0, 1% crystal violet (Sigma-Aldrich). After 30 minutes incubation in room temperature, the plates were washed twice with 200 μl tap water and once with 240 μl. This was followed by the addition of 200 μl ethanol:acetone (70:30 w:w) and incubated for another 10 minutes in room temperature. OD595 was measured in a microplate photometer (Multiscan EX) after the bound dye was dissolved using ethanol:acetone. For each strain, the result was calculated by subtracting the average OD595 of the two parallels of the control (test broth only) from the average OD595 of the two parallels of sample. Three independent experiments were performed. The average of the 6 strains as well as the average between the experiments was calculated.

Test [2] relates to E. coli 1242 and E. coli 1153. Kind of test: Biofilm formation in microtiter plates, comparison of 1,3-cyclohexanedione and menthone. It counts as cell-based, Escherichia coli. The following applies: two values, one per strain (E. coli 1242, E. coli 1153). The protocol: (§1) All experiments were performed by using sterile 96-wells polystyrene microtiter plates (Nunc, Nuncleon, Roskilde, Denmark) under conditions promoting biofilm formation by the different bacterial genera. The Inhibio compound preparations of the invention; 1,3-cyclohexanedione, 1,4-cyclohexanedione, cyclopentanone, 5-ethylcyclohexane-1,3-dione and 5-methyl-1,3 cyclohexanedione 98% were solved directly in Tryptic Soy Broth (TSB) 1+1 or Liquid Microbiology Broth (LB) broth without NaCl (LB^wo/NaCl) to obtain the test concentrations, i.e. from 1 mg/ml to 10 mg/ml.
One Salmonella ser. Typhimurium (S. Typhimurium), two Salmonella ser. Agona (S. Agona) and two Escherichia coli (E. coli) isolates were used in these studies. The studies performed using 1,3-cyclohexanedione and 1,4-cyclohexanedione were done on Salmonella isolates only. The studies comparing Menthone to 1,3-cyclohexanedione were using two E. coli strains, E. coli 1242 and E. coli 1153, see FIG. 11. The Salmonella isolates were isolated from Norwegian feed factories except one S. Typhimurium strain which was a culture collection strain (ATCC 14028). The E. coli isolates were of animal origin. All strains were stored at −80° C. in BHI supplemented with 15% glycerine and were recovered on blood agar at 37.0±1.0° C. The bacterial cultures were then transferred into LB broth and incubated statically overnight at 37.0±1.0° C. to obtain an overnight working culture. […] After incubation, OD595 was measured before the plates were gently washed one time with 150 μl tap water. […] OD595 was measured in a microplate photometer (Multiscan EX) after the bound dye was dissolved using ethanol:acetone. For each strain, the result was calculated by subtracting the median OD595 of the three parallels of the control (test broth only) from the median OD595 of the three parallels of sample. Further, the averages of the Gram negative strains were calculated. Three independent experiments were performed and the average was evaluated.

Test [3] concerns S. Agona and E. coli (one strain each). Briefly: Biofilm formed on stainless steel coupons by Gram negative bacteria (CFU count). It is filed as cell-based, Salmonella ser. Agona, Escherichia coli. Conditions: 20 °C for 72 hours. The protocol:
One strain of S. Agona (FIG. 10) and one strain of E. coli (FIG. 10) was used in this study. The study was performed using 1,3-cyclohexanedione in a concentration of 1 and 10 mg/ml. The strain was stored at −80° C. in BHI (Difco, BD, Franklin Lakes, N.J., USA) supplemented with 15% glycerine (Merck KGaA, Darmstadt, Germany) and was recovered on blood agar at 37.0±1.0° C. The bacterial culture was then transferred into LB broth and was incubated statically overnight at 37.0±1.0° C. to obtain an overnight working culture. The Inhibio compound was dissolved in LB^wo/NaCl to a concentration of 10 mg/ml and then further diluted to a concentration of 1 mg/ml. 10 ml of each solution was added to a 50 ml Falcon tube and, in a third tube, only LB broth^wo/NaCl was added as a control. […]
Following incubation, each coupon was dipped three times in three different tubes containing physiological saline and further transferred to a tube containing 5 ml cold physiological saline as well as 20 sterile silica glass beads. […] After incubation, the bacterial colonies were counted. […]
The Colony forming units (CFU) on the plate was calculated into CFU in biofilm by multiplying with a factor for each dilution. Further, the log value was calculated of the average of each dilution.

For test [4], the system named is Gram negative bacteria (Salmonella isolates). Kind of test: Biofilm formation in polystyrene microtiter plates (crystal violet, OD595), Gram negative bacteria. It is filed as cell-based, Salmonella ser. Typhimurium, Salmonella ser. Agona. Conditions: two days at 20 °C. The protocol: as §1
One Salmonella ser. Typhimurium (S. Typhimurium), two Salmonella ser. Agona (S. Agona) and two Escherichia coli (E. coli) isolates were used in these studies. The studies performed using 1,3-cyclohexanedione and 1,4-cyclohexanedione were done on Salmonella isolates only. The studies comparing Menthone to 1,3-cyclohexanedione were using two E. coli strains, E. coli 1242 and E. coli 1153, see FIG. 11. The Salmonella isolates were isolated from Norwegian feed factories except one S. Typhimurium strain which was a culture collection strain (ATCC 14028). The E. coli isolates were of animal origin. All strains were stored at −80° C. in BHI supplemented with 15% glycerine and were recovered on blood agar at 37.0±1.0° C. The bacterial cultures were then transferred into LB broth and incubated statically overnight at 37.0±1.0° C. to obtain an overnight working culture. A total of 30 μl of this suspension was transferred to each well in 96 wells polystyrene microtiter plates (Nunc, Nuncleon, Roskilde, Denmark) in triplets. The wells were containing 100 μl LB^wo/NaCl (bacto-tryptone 10 g/l, yeast extract 5 g/l) with 1,3-cyclohexanedione dissolved in concentration 0 mg/ml, 1 mg/ml and 10 mg/ml in the total amount of broth and 1,4-cyclohexanedione and cyclopentanone at 0 mg/ml and 10 mg/ml. The microtiter plates were incubated statically for two days, at 20±1.0° C. After incubation, OD595 was measured before the plates were gently washed one time with 150 μl tap water. The plates were dried in room temperature before addition of 140 μl 1% crystal violet (Sigma-Aldrich). After 30 minutes incubation in room temperature, the plates were washed three times with tap water before addition of 140 μl ethanol:acetone (70:30 w:w) and incubated for another 10 minutes in room temperature. OD595 was measured in a microplate photometer (Multiscan EX) after the bound dye was dissolved using ethanol:acetone. For each strain, the result was calculated by subtracting the median OD595 of the three parallels of the control (test broth only) from the median OD595 of the three parallels of sample. Further, the averages of the Gram negative strains were calculated. Three independent experiments were performed and the average was evaluated.

Structures are written as SMILES. “And” between values parts separate entries of the source, which are not always exact repeats. Equal entries are not always repeated. “Also recorded” adds a separate entry of the source.

Turning to `O=C1CCCC(=O)C1` [1,3-cyclohexanedione], the “decrease in biofilm formation in percentage of the control” value worked out at 27% in test [1] (0.625 mg/ml), 40% in test [1] (2.5 mg/ml), 53% in test [1] (5 mg/ml) and 70% in test [1] (10 mg/ml). The “decrease in biofilm formation” value in test [2] (1 mg/ml) is 46% and 70%; in test [2] (10 mg/ml), 97% and 100%. Further, the “CFU in biofilm on stainless steel coupon” value in test [3] (1 mg/ml) is “decrease in biofilm formation; also recorded: significant decrease”; in test [3] (10 mg/ml), “could not detect any colony forming units; also recorded: no bacteria found in the biofilm”. Besides, the “decrease in biofilm formation, percentage of the control” value in test [4] (1 mg/ml) was determined as 70%; in test [4] (10 mg/ml) it was 87%.

Values taken from patent US20190144368A1, “Compounds and compositions for biofilm prevention” (INHIBIO AS, priority 2016, published 2019).
